This passage reports Emax and EC50 results from patent US9416141B2 (University of Washington through its Center for …, priority 2012, dated 2016).

Counter-ions that a name gives are not always drawn. Some results are limits rather than exact numbers.

The test relates to hair cells. Put plainly: Hair cell toxicity assay in zebrafish (neomycin-induced hair cell death, DASPEI staining of neuromasts). Format: in vivo. The following applies: Danio rerio; for Emax at 2.8 µM: maximum observed @ 2.8 μM test compound; for EC50: zebrafish larvae 5-7 dpf, 1 h pre-treatment, then 200 micromolar neomycin + test compound 30 min, read-out: HC50 (concentration that would produce 50% hair cell survival); for Emax at 8.3 µM: maximum observed @ 8.3 μM test compound; for Emax at 25 µM: maximum observed @ 25 μM test compound; for Emax at 6.3 µM: maximum observed @ 6.3 μM test compound. In outline: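 Zebrafish larvae 5-7 dpf pre-treated 1 h with compound (0.010-25 μM), then 30 min with 200 μM neomycin plus compound. DASPEI stained 10 neuromasts per fish, scored 0-2 (total 0-20), normalised to vehicle controls as % hair cell survival. HC50 linearly interpolated if survival reached ≥50%; HCmax is maximum survival.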

The mark [1] stands for this setting: 200 micromolar neomycin, read-out: Max HC Protection (HCmax, % hair cell survival).

As for `CC[N+]1(C)CCc2c(sc(NC(=O)N(C)c3ccc(Cl)cc3)c2C(N)=O)C1` (stereo not drawn) [Example 185, 3-Carbamoyl-2-[3-(4-chlorophenyl)-3-methylureido]-6-ethyl-6-methyl-4,5,6,7-tetrahydrothieno[2,3-c]pyridin-6-ium chloride], under setting [1], the Emax at 2.8 µM was found to be 16%.

Regarding `CC[N+]1(CC2CCC2)CCc2c(sc(NC(=O)Nc3ccc(Cl)cc3)c2C(N)=O)C1` (stereo not drawn) [Example 190, 3-carbamoyl-2-[3-(4-chlorophenyl)ureido]-6-(cyclobutylmethyl)-6-ethyl-4,5,6,7-tetrahydrothieno[2,3-c]pyridin-6-ium chloride], the EC50 was under 1 µM. Besides, under setting [1], the Emax at 2.8 µM came to 100%.

For the compound `CC(C)[N+]1(C)CCc2c(sc(NC(=O)Nc3ccc(Cl)cc3)c2C(N)=O)C1` (stereo not drawn) [Example 191, 3-Carbamoyl-2-[3-(4-chlorophenyl)ureido]-6-isopropyl-6-methyl-4,5,6,7-tetrahydrothieno[2,3-c]pyridin-6-ium iodide], the EC50 was under 1 µM. For the same compound, the Emax at 8.3 µM under setting [1] amounted to 80%.

With `C[N+]1(CC(F)(F)F)CCc2c(sc(NC(=O)Nc3ccc(Cl)cc3)c2C(N)=O)C1` (stereo not drawn) [Example 192, 3-Carbamoyl-2-[3-(4-chlorophenyl)ureido]-6-methyl-6-(2,2,2-trifluoroethyl)-4,5,6,7-tetrahydrothieno[2,3-c]pyridin-6-ium iodide], the EC50 was under 1 µM. The Emax at 25 µM under setting [1] turned out to be 88%.

In the case of `CC(C)(C)C[N+]1(C)CCc2c(sc(NC(=O)Nc3ccc4ccccc4c3)c2C(N)=O)C1` (stereo not drawn) [Example 193, 3-Carbamoyl-6-methyl-2-(3-naphthalen-2-ylureido)-6-neopentyl-4,5,6,7-tetrahydrothieno[2,3-c]pyridin-6-ium trifluoroacetate], the EC50 was under 1 µM. Besides, the Emax at 25 µM under setting [1] was 98%.

Take `CN(C)C(=O)CC[N+]1(C)CCc2c(sc(NC(=O)Nc3ccc(Cl)cc3)c2C(N)=O)C1` (stereo not drawn) [Example 194, 3-Carbamoyl-2-[3-(4-chlorophenyl)ureido]-6-[3-(dimethylamino)-3-oxopropyl]-6-methyl-4,5,6,7-tetrahydrothieno[2,3-c]pyridin-6-ium chloride]: the Emax at 2.8 µM under setting [1] was 36%.

Turning to `CC[N+]1(CC2CCCCC2)CCc2c(sc(NC(=O)Nc3ccc(Cl)cc3)c2C(N)=O)C1` (stereo not drawn) [Example 195, 3-Carbamoyl-2-[3-(4-chlorophenyl)ureido]-6-(cyclohexylmethyl)-6-ethyl-4,5,6,7-tetrahydrothieno[2,3-c]pyridin-6-ium trifluoroacetate], the EC50 is under 1 µM. Further, the Emax at 0.9 µM (maximum observed @ 0.9 μM test compound, 200 micromolar neomycin, read-out: Max HC Protection (HCmax, % hair cell survival)) was 74%.

On to `CC1(C[N+]2(C)CCc3c(sc(NC(=O)Nc4ccc(Cl)cc4)c3C(N)=O)C2)CC1` (stereo not drawn) [Example 196, 3-Carbamoyl-2-[3-(4-chlorophenyl)ureido]-6-methyl-6-[(1-methylcyclopropyl)methyl]-4,5,6,7-tetrahydrothieno[2,3-c]pyridin-6-ium trifluoroacetate], for which the EC50 was under 1 µM. For the same compound, the Emax at 2.8 µM under setting [1] was 85%.

Take `C[N+]1(CC23CC4CC(CC(C4)C2)C3)CCc2c(sc(NC(=O)Nc3ccc(Cl)cc3)c2C(N)=O)C1` (stereo not drawn) [Example 197, 6-[(3r,5r,7r)-Adamantan-1-ylmethyl]-3-carbamoyl-2-[3-(4-chlorophenyl)ureido]-6-methyl-4,5,6,7-tetrahydrothieno[2,3-c]pyridin-6-ium chloride]: the EC50 is under 1 µM. Further, under setting [1], the Emax at 2.8 µM was determined as 93%.

In the case of `CC[N+]1(CCCC(=O)OC(C)(C)C)CCc2c(sc(NC(=O)Nc3ccc(Cl)cc3)c2C(N)=O)C1` (stereo not drawn) [Example 198, 6-[4-(tert-Butoxy)-4-oxobutyl]-3-carbamoyl-2-[3-(4-chlorophenyl)ureido]-6-ethyl-4,5,6,7-tetrahydrothieno[2,3-c]pyridin-6-ium trifluoroacetate], the EC50 was under 1 µM. Besides, the Emax at 2.8 µM under setting [1] was 89%.

In the case of `CC(C)(C)OC(=O)CCC[N+]1(CC2CCC2)CCc2c(sc(NC(=O)Nc3ccc(Cl)cc3)c2C(N)=O)C1` (stereo not drawn) [Example 199, 6-[4-(tert-Butoxy)-4-oxobutyl]-3-carbamoyl-2-[3-(4-chlorophenyl)ureido]-6-(cyclobutylmethyl)-4,5,6,7-tetrahydrothieno[2,3-c]pyridin-6-ium trifluoroacetate], the EC50 was under 1 µM. Besides, the Emax at 0.3 µM (maximum observed @ 0.3 μM test compound, 200 micromolar neomycin, read-out: Max HC Protection (HCmax, % hair cell survival)) came out at 68%.

Turning to `CC[N+]1(CC(C)C)CCc2c(sc(NC(=O)Nc3ccc(Cl)cc3)c2C(N)=O)C1` (stereo not drawn) [Example 200, 3-Carbamoyl-2-[3-(4-chlorophenyl)ureido]-6-ethyl-6-isobutyl-4,5,6,7-tetrahydrothieno[2,3-c]pyridin-6-ium chloride], the EC50 is under 1 µM. Also, the Emax at 2.8 µM under setting [1] stood at 97%.

In the case of `NC(=O)c1c(NC(=O)Nc2ccc(Cl)cc2)sc2c1CC[N+](CCCO)(CCCO)C2` [Example 201, 3-Carbamoyl-2-[3-(4-chlorophenyl)ureido]-6,6-bis(3-hydroxypropyl)-4,5,6,7-tetrahydrothieno[2,3-c]pyridin-6-ium chloride], the EC50 was under 1 µM. In addition, the Emax at 2.5 µM (maximum observed @ 2.5 μM test compound, 200 micromolar neomycin, read-out: Max HC Protection (HCmax, % hair cell survival)) was 102%.

With `CC(C)(O)C[N+]1(C)CCc2c(sc(NC(=O)Nc3ccc(Cl)cc3)c2C(N)=O)C1` (stereo not drawn) [Example 202, 3-Carbamoyl-2-[3-(4-chlorophenyl)ureido]-6-(2-hydroxy-2-methylpropyl)-6-methyl-4,5,6,7-tetrahydrothieno[2,3-c]pyridin-6-ium iodide], the EC50 was under 1 µM. Under setting [1], the Emax at 8.3 µM came to 85%.

`CC(C)(C)OC(=O)NCCCN1CCc2c(sc(NC(=O)Nc3ccc(Cl)cc3)c2C(N)=O)C1` [Example 205, tert-butyl N-[3-(3-carbamoyl-2-{[(4-chlorophenyl)carbamoyl]amino}-4H,5H,6H,7H-thieno[2,3-c]pyridin-6-yl)propyl]carbamate]: the EC50 fell in the range of 1 to 10 µM. Moreover, the Emax at 6.3 µM under setting [1] worked out at 81%.

In the case of `CC(C)(C)OC(=O)NCCCN1CCc2c(sc(NC(=O)Nc3ccc4ccccc4c3)c2C(N)=O)C1` [Example 206, tert-Butyl N-[3-(3-carbamoyl-2-{[(naphthalen-2-yl)carbamoyl]amino}-4H,5H,6H,7H-thieno[2,3-c]pyridin-6-yl)propyl]carbamate], the EC50 lay within 1 to 10 µM. Besides, the Emax at 6.3 µM under setting [1] came out at 88%.

Turning to `NC(=O)c1c(NC(=O)Nc2ccc(I)cc2)sc2c1CCN(CCCOCc1ccccc1)C2` [Example 207], the EC50 was in the range of 1 to 10 µM. Also, the Emax at 25 µM under setting [1] came to 66%.

Turning to `CC(C)(C)OC(=O)NCCCN1CCc2c(sc(NC(=O)Nc3ccc(C(=O)c4ccccc4)cc3)c2C(N)=O)C1` [Example 208, tert-Butyl N-[3-(2-{[(4-benzoylphenyl)carbamoyl]amino}-3-carbamoyl-4H,5H,6H,7H-thieno[2,3-c]pyridin-6-yl)propyl]carbamate], the EC50 is 1 to 10 µM. Besides, the Emax at 2.8 µM under setting [1] is 56%.

`NC(=O)c1c(NC(=O)Nc2ccc(Cl)cc2)sc2c1CCN(CCCNC(=O)CCc1c[nH]c3ccccc13)C2` [Example 209, 2-{[(4-chlorophenyl)carbamoyl]amino}-6-{3-[3-(1H-indol-3-yl)propanamido]propyl}-4H,5H,6H,7H-thieno[2,3-c]pyridine-3-carboxamide]: the EC50 was under 1 µM. Moreover, the Emax at 2.8 µM under setting [1] came out at 98%.

For the compound `NC(=O)c1c(NC(=O)Nc2ccc(Cl)cc2)sc2c1CCN(CCCNC(=O)CCc1ccccc1)C2` [Example 210, 2-{[(4-chlorophenyl)carbamoyl]amino}-6-[3-(3-phenylpropanamido)propyl]-4H,5H,6H,7H-thieno[2,3-c]pyridine-3-carboxamide], the EC50 is under 1 µM. Besides, the Emax at 25 µM under setting [1] amounted to 99%.

`NC(=O)c1c(NC(=O)Nc2ccc(Cl)cc2)sc2c1CCN(CCCNC(=O)CCc1cccnc1)C2` [Example 211, 2-{[(4-chlorophenyl)carbamoyl]amino}-6-{3-[3-(pyridin-3-yl)propanamido]propyl}-4H,5H,6H,7H-thieno[2,3-c]pyridine-3-carboxamide]: the EC50 was under 1 µM. Also, the Emax at 25 µM under setting [1] came out at 95%.

For `NC(=O)c1c(NC(=O)Nc2ccc(Cl)cc2)sc2c1CCN(CCCNC(=O)c1ccccc1)C2` [Example 212, 2-{[(4-chlorophenyl)carbamoyl]amino}-6-[3-(phenylformamido)propyl]-4H,5H,6H,7H-thieno[2,3-c]pyridine-3-carboxamide], the EC50 fell in the range of 1 to 10 µM. In addition, the Emax at 25 µM under setting [1] worked out at 103%.

`CC(C)(C)c1ccc(CCC(=O)NCCCN2CCc3c(sc(NC(=O)Nc4ccc(Cl)cc4)c3C(N)=O)C2)cc1` [Example 213, 6-{3-[3-(4-tert-butylphenyl)propanamido]propyl}-2-{[(4-chlorophenyl)carbamoyl]amino}-4H,5H,6H,7H-thieno[2,3-c]pyridine-3-carboxamide]: the EC50 is under 1 µM. The Emax at 2.8 µM under setting [1] worked out at 92%.

Take `NC(=O)c1c(NC(=O)Nc2ccc(Cl)cc2)sc2c1CCN(CCCNC(=O)CCc1cccc3ccccc13)C2` [Example 214, 2-{[(4-chlorophenyl)carbamoyl]amino}-6-{3-[3-(naphthalen-1-yl)propanamido]propyl}-4H,5H,6H,7H-thieno[2,3-c]pyridine-3-carboxamide]: the EC50 is under 1 µM. The Emax at 2.8 µM under setting [1] was determined as 95%.

`NC(=O)c1c(NC(=O)Nc2ccc(Cl)cc2)sc2c1CCN(CCCNC(=O)C1CC1)C2` [Example 215, 2-{[(4-chlorophenyl)carbamoyl]amino}-6-[3-(cyclopropylformamido)propyl]-4H,5H,6H,7H-thieno[2,3-c]pyridine-3-carboxamide]: the EC50 lay in the range of 1 to 10 µM. Also, the Emax at 25 µM under setting [1] amounted to 95%.
